Reference: US20260000658A1, “METHODS FOR THE TREATMENT OF PROLIFERATIVE GLOMERULONEPHRITIS” (INSTITUT NATIONAL DE LA SANTÉ ET DE LA RECHERCHE MÉDICALE, priority 2022, published 2026)

Experiments:
Assay type in all cases: in vivo, mouse
NZBWF1/J mice = test: Uninephrectomized NZBWF1/J mice (lupus nephritis model), vehicle or alpelisib for 4 weeks
Excerpt: (§1) A. Urinary albumin to creatinine ratio B. Blood urea nitrogen level, C. kidney to body weight ratio of NZBWF1/J mice at the time of sacrifice (4 weeks following either sham operation or uninephrectomy followed by the treatment either with vehicle or alpelisib) (n=5-15 mice per group). D. Representative P-S6RP/Nephrin coimmunofluorescence staining of kidneys from 4 weeks following either sham operation or uninephrectomy followed by the treatment either with vehicle or alpelisib) (n=4-6 mice per group). Scale bar […]. E. P-S6RP mean intensity quantification (n=4-6 mice per group). F. Col3a, G. Col1a, and H. Tnfα quantification of qRT-PCR analysis in the kidney cortex of kidneys at the time of sacrifice (4 weeks following either sham operation or uninephrectomy followed by the treatment either with vehicle or alpelisib) (n=5-15 mice per group). I. Kaplan-Meier survival curves of MRL-lpr mice treated either with vehicle or alpelisib (n=13-14 mice per group). J. Urinary albumin to creatinine ratio of MRL-lpr mice treated either with vehicle or alpelisib from 8 weeks old till death (n=13-14 mice per group). K. Vehicle treated mice, and L. alpelisib treated mice of the trajectory of urinary albumin to creatinine ratio of MRL-lpr mice (n=13-14 mice per group).
(§2) For the uninephrectomy experiments, the right kidneys were removed under anesthesia. For the medical treatment of mice, 50 mg kg −1 alpelisib (MedChem Tronica) in 1% carboxymethylcellulose (Sigma Aldrich)+0.5% Tween (Sigma Aldrich) or vehicle (1% carboxymethylcellulose+0.5% Tween) was administered by oral gavage daily for the indicated periods of time. Blood and urines were obtained at the indicated times. At euthanasia, blood, urines, kidneys were harvested. In some experiments, spleens, hearts, and bone marrow (BM) in femurs and tibias were harvested as well. Tissues were fixed in 4% paraformaldehyde and paraffin embedded for immunohistochemical analysis, snap-frozen in Optimal Cutting Temperature (OCT), or stored at −80° C. for mRNA or protein analysis.
(§3) Mouse blood counts were analyzed using a hematology analyzer (ProCyte Dx; IDEXX Laboratories). Mouse serum creatinine, blood urea nitrogen, urinary albumin, and urinary creatinine were evaluated using an AU5800 (Beckman Coulter) autoanalyzer. Serum anti-dsDNA measurement was performed according to the manufacturer's instruction using mouse anti-dsDNA ELISA kit (LBIS). The absorbance was measured using Ininite M Nano (TECAN).
(§4) 4-μm kidney sections were stained with periodic acid-Schiff (PAS), Masson's Trichrome (MT), Periodic acid metenamine silver (PAM) or Hematoxylin and Eosin (HE) staining for histological analysis. The degree of glomerular lesions was evaluated using the following scoring system: 0=no lesion, 1=affecting up to 25% of the glomerulus, 2=affecting 25-50% of the glomerulus, 3=affecting 50-75% of the glomerulus, and 4=affecting 75-100%. At least 50 glomeruli per sample were measured for each analysis. An indirect immunoperoxidase method was used for immunohistochemistry. Briefly, after deparaffinization, antigen retrieval was performed with citrate buffer (pH6) or Tris-EDTA buffer (pH9 or pH6) using microwave or high temperature (95° C.). Endogenous peroxidase activity was quenched using 3% hydrogen peroxide; nonspecific protein binding was blocked using 2.5% normal horse serum (Vector Laboratories), and endogenous biotin activity was quenched using the Avidin/Biotin Blocking Kit (Vector Laboratories). When using mouse primary antibodies on mouse tissue, Klear mouse blocking reagent (Diagomics) was used to block endogenous mouse immunoglobulins. After blocking, the tissue sections were incubated with the primary antibodies overnight at 4° C. […]

MRL-lpr mice [1] = test: MRL-lpr mice, 12 weeks old, treated for 4 weeks
Description: as §2, §3
4-μm kidney sections were stained with periodic acid-Schiff (PAS), Masson's Trichrome (MT), Periodic acid metenamine silver (PAM) or Hematoxylin and Eosin (HE) staining for histological analysis. The degree of glomerular lesions was evaluated using the following scoring system: 0=no lesion, 1=affecting up to 25% of the glomerulus, 2=affecting 25-50% of the glomerulus, 3=affecting 50-75% of the glomerulus, and 4=affecting 75-100%. At least 50 glomeruli per sample were measured for each analysis. An indirect immunoperoxidase method was used for immunohistochemistry. Briefly, after deparaffinization, antigen retrieval was performed with citrate buffer (pH6) or Tris-EDTA buffer (pH9 or pH6) using microwave or high temperature (95° C.). Endogenous peroxidase activity was quenched using 3% hydrogen peroxide; nonspecific protein binding was blocked using 2.5% normal horse serum (Vector Laboratories), and endogenous biotin activity was quenched using the Avidin/Biotin Blocking Kit (Vector Laboratories). When using mouse primary antibodies on mouse tissue, Klear mouse blocking reagent (Diagomics) was used to block endogenous mouse immunoglobulins. After blocking, the tissue sections were incubated with the primary antibodies overnight at 4° C. The following primary antibodies were used: rabbit anti-Ki67 antibody (SP6; Thermo Fisher Scientific), rabbit anti-P-S6RP antibody (D68F8; Cell Signaling Technology), mouse anti-P-AKT (Ser473) antibody (587F11; Cell Signaling Technology), rabbit anti-P-AKT (Thr308) antibody (C31E5E; Cell Signaling Technology), mouse anti-S6RP antibody (54E2; Cell Signaling Technology), chicken anti-GFP antibody (Abcam), guinea pig anti-Nephrin antibody (GP-N2; Progen), rabbit anti-Podocin antibody (P0372; Sigma Aldrich), mouse anti-WTI antibody (6F-H2; DAKO). The corresponding secondary antibodies including anti-mouse IgG, anti-rabbit IgG, anti-guinea pig IgG, biotinylated anti-rabbit IgG (Vector Laboratories), and biotinylated anti-mouse IgG (Vector Laboratories) were applied. For Avidin/Biotin detection, an R.T.U. Vectastain Kit (Vector Laboratories) or streptavidin (Thermo Fisher Scientific) was used. The immunoreactive antigens sites were detected with hydrogen peroxide and diaminobenzidine. For frozen immunofluorescent staining, frozen tissue sections (4 μm) were briefly air dried and fixed in 50% methanol/50% acetone. The sections were then blocked with 2.5% normal horse serum and incubated with primary antibodies: guinea pig anti-Nephrin antibody (GP-N2; Progen) overnight at 4° C. The sections were then incubated at room temperature for 40 min with secondary antibodies: fluorescein isothiocyanate-conjugated (FITC) anti-mouse IgG (Sigma Aldrich), FITC anti-mouse IgM (BD Biosciences), or FITC anti-mouse C3 antibody (abcam). […]

MRL-lpr mice [2] = test: MRL-lpr mice (lupus nephritis model) treated from 8 weeks old till death
Excerpt: as §1, §2, §3, §4

[3] = 4 weeks treatment, at sacrifice

Cc1nc(NC(=O)N2CCC[C@H]2C(N)=O)sc1-c1ccnc(C(C)(C)C(F)(F)F)c1 [alpelisib, Alpelisib]
anemia (NZBWF1/J mice; 4 weeks treatment): partial correction of anemia | glomerular AKT/mTOR pathway activation (P-S6RP) (NZBWF1/J mice; 4 weeks treatment): blunted | glomerular IgG, IgM and C3 deposits (NZBWF1/J mice; 4 weeks treatment): significantly reduced | level of dsDNA (NZBWF1/J mice; 4 weeks treatment): tendency to decrease | platelet count (NZBWF1/J mice; 4 weeks treatment): significant increase in platelet count | podocyte differentiation markers (NZBWF1/J mice; 4 weeks treatment): significantly improved | blood urea nitrogen levels (NZBWF1/J mice; [3]): lower blood urea nitrogen levels | kidney to body weight ratio (NZBWF1/J mice; [3]): significantly reduced | glomeruli, histological level (NZBWF1/J mice; 4 weeks treatment, vs vehicle): preserved glomeruli | kidney lesions (title of FIG. 4) (NZBWF1/J mice; Lupus Nephritis models (NZBWF1/J and MRL-lpr)): improves kidney lesions | spleen size (NZBWF1/J mice; both sham and uninephrectomized mice): significantly reduced | albuminuria (urinary albumin to creatinine ratio) (NZBWF1/J mice; females, uninephrectomy at 24 weeks, 4 weeks treatment, at sacrifice): significantly less albuminuria | Col1a and Col3a mRNA expression (NZBWF1/J mice; kidney cortex, qRT-PCR): reduced | TNFa mRNA expression (NZBWF1/J mice; kidney cortex, qRT-PCR): reduced | progression of glomerular lesions (NZBWF1/J mice; sacrifice vs kidney removed at uninephrectomy): remained stable | proteinuria (MRL-lpr mice [1]; 12 weeks old females, 4 consecutive weeks): proteinuria reduction | Cola1 and Cola3 mRNA expression (MRL-lpr mice [1]; 12 weeks old, 4 weeks): improved | dsDNA antibodies (MRL-lpr mice [1]; 12 weeks old, 4 weeks): significantly reduced | glomerular AKT/mTOR pathway (MRL-lpr mice [1]; 12 weeks old, 4 weeks): inhibited | glomerular lesion score (MRL-lpr mice [1]; 12 weeks old, 4 weeks): improved | expression of podocyte differentiation markers (MRL-lpr mice [1]; vs vehicle): increased | kidney to body weight ratio (MRL-lpr mice [2]; at sacrifice, vs vehicle): tendency to have a lower kidney to body weight ratio | survival / life expectancy (Kaplan-Meier) (MRL-lpr mice [2]; females, from 8 weeks old till death): significant extension of life expectancy | trajectory of albuminuria before and after treatment introduction (MRL-lpr mice [2]; from 8 weeks old): proteinuria improvement | glomerular lesions, kidney examination (MRL-lpr mice [2]; vs vehicle): no glomerular lesions | kidney function (MRL-lpr mice [2]; vs vehicle): improved kidney function | proteinuria (urinary albumin to creatinine ratio) (MRL-lpr mice [2]; vs vehicle): less proteinuria
